# Test results published in PubChem BioAssay AID602273 (Broad Institute, 2012).
# Calls of active or inactive are those of the source. No rule for the calls is given here.
# System: not listed separately
# Assay: rescue of alpha-synuclein yeast toxicity, dose response, S. cerevisiae, plate reader, cherry-pick (AID 602273)
# Settings: S. cerevisiae alpha-synuclein toxicity rescue, OD600 growth, 24 h; at 26 µM (top of the series)
row,SMILES,growth rescue activity
1,COC(=O)[C@@H](Cc1c[nH]c2ccccc12)NC(=O)c1ccc2c(c1)OCO2,0.758% (inactive)
2,CC(=O)c1ccc(NC(=O)CCCN2C(=O)/C(=C/C(C)=C/c3ccccc3)SC2=S)cc1,-5.11% (inactive)
3,C=CCn1c(C)cc(C(=O)CSc2nc(N)cc(N)n2)c1C,0.814% (inactive)
4,CC(C)(CNC(=O)/C=C/c1ccc(F)cc1)CNC(=O)/C=C/c1ccc(F)cc1,0.36% (inactive)
5,CN(Cc1ccccc1)C(=O)c1cc(-c2ccc(Br)cc2)on1,-17.2% (inactive)
6,Oc1[nH]c(N=C2N=c3ccccc3=N2)c2ccccc12,-26.4% (inactive)
7,O=C1NCC2=C1C(c1ccc(Br)cc1)Nc1ccccc1N2 (stereo unspecified),-8.45% (inactive)
8,Cn1c(=O)c(/C=C/c2ccc(F)cc2)nc2ccccc21,8.65% (inactive)
9,c1ccc2c(Nc3nnc(-c4ccncc4)s3)cccc2c1,-9.03% (inactive)
10,Cc1cccc(-c2cc(C(=O)Nc3ccncc3)c3ccccc3n2)c1,1.56% (inactive)
11,CCOC(=O)c1c(C)c(C(=O)Nc2ccc3c(c2)OCO3)c(C)n1C,2.62% (inactive)
12,Cc1ccc(O)c(CNc2nccs2)c1,12% (inactive)
13,Cc1cc(C(=O)N2CCN(c3ccccn3)CC2)c(C)o1,-0.518% (inactive)
14,COC(=O)C(C)Sc1ncnc2c1nnn2-c1ccc(F)cc1 (stereo unspecified),-1.99% (inactive)
15,CCSc1nnc(NC(=O)c2cccnc2Cl)s1,-4.76% (inactive)
16,COc1ccc(-c2nc3scc(-c4ccccc4)n3n2)cc1,-0.958% (inactive)
17,CC(C)OC(=O)c1ccc(COc2ccc3ccc(=O)oc3c2)o1,2.08% (inactive)
18,COc1ccc(C(=O)n2nc(C)cc2Nc2ccccc2)cc1,2.84% (inactive)
19,CC(C)(C)c1ccc(COc2ccsc2C(=O)O)cc1,-21.6% (inactive)
20,COc1ccc2c(c1OC)C(=O)OC2Nc1nc(-c2ccccc2)cs1 (stereo unspecified),3.17% (inactive)
21,CC1CC(C)(C)N(C(=O)NC2CCCCC2)c2ccccc21 (stereo unspecified),12.6% (inactive)
22,CC(=O)N1N=C(c2ccccc2)CC1c1ccccc1[N+](=O)[O-] (stereo unspecified),2.51% (inactive)
23,Cc1c(/C=N/NC(=O)c2ccc(Br)o2)cnn1C,-2.43% (inactive)
24,CCC(=O)Nc1cccc(C(=O)/C=C/c2ccc(F)cc2)c1,-9.73% (inactive)
25,CC1(C)CC(=O)C2=C(C1)Nc1cc3c(cc1C2c1ccc2c(c1)OCO2)OCO3 (stereo unspecified),11.9% (inactive)
26,CCOc1cccc(/C=C/c2ccc3cccc(O)c3n2)c1OC,-2.49% (inactive)
27,Nc1nnc(SCc2c(F)cccc2Cl)s1,4.49% (inactive)

row,SMILES,growth rescue activity
1,O=C(NCCN1Cc2ccccc2C1=O)c1cccs1,-6.05% (inactive)
2,O=C1NC(=O)[C@]2(Cc3ccccc3N3CCN(c4ccccc4)CC32)C(=O)N1Cc1ccccc1 (stereo partly specified),3.15% (inactive)
3,O=C(CSc1ccc(Cl)cc1)N1CCN(c2c(Cl)cccc2[N+](=O)[O-])CC1,-19.7% (inactive)
4,C/C(Cn1cnc([N+](=O)[O-])n1)=N\NC(=O)c1ccccc1F,-2.85% (inactive)
5,CCC1(C)N=C(N)Nc2nc3cc(C)c(C)cc3n21 (stereo unspecified),-2.62% (inactive)
6,N#Cc1ccc(OCCN2CCc3ccccc3C2)cc1,4.6% (inactive)
7,Cc1ccc(-n2cc(CNCCN3CCOC3=O)c(-c3cccc(C)c3)n2)cc1,0.352% (inactive)
8,COc1ccc(CCNc2oc(-c3ccccc3OC)nc2C#N)cc1,1.38% (inactive)
9,O=C(CSc1nnc(-c2c[nH]c3ccccc23)n1-c1ccc(F)cc1)NCc1ccco1,0.096% (inactive)
10,COc1ccccc1C(=O)CSc1nnc(-c2ccco2)o1,-9.45% (inactive)
11,Cc1ccc(CN2CCN(CC(C)C)C(CCO)C2)s1 (stereo unspecified),-1.18% (inactive)
12,Cc1[nH]c2ccccc2c1/C=C(\C#N)C(=O)NCC1CCCO1 (stereo unspecified),4.73% (inactive)
13,C=CCN1C(=O)C(Cc2ccc(OCC)cc2)SC1=Nc1ccc(C(=O)O)cc1 (stereo unspecified),18.5% (inactive)
14,O=C(CSCc1ccc(Br)cc1)N1CCCC1,0.808% (inactive)
15,O=C1S/C(=C\c2ccc(N3CCOCC3)o2)C(=O)N1Cc1c(F)cccc1Cl,-0.523% (inactive)
16,Cc1nc(SCCOc2ccc(F)cc2)c2ccccc2n1,-1.07% (inactive)
17,CCOC(=O)C1(Cc2ccc(OC)cc2)CCN(C(=O)c2cc3ccccc3[nH]2)CC1,1.19% (inactive)
18,Cc1ccc(N2C(=O)NC(=O)/C(=C\C=C\c3ccco3)C2=O)cc1C,1.5% (inactive)
19,O=C(/C=C/Sc1ccccc1)c1ccccc1,3.99% (inactive)
20,CCOC(=S)SCC(=O)Nc1nc(C)c(C)s1,0.308% (inactive)
21,COc1ccc(S(=O)(=O)n2nc(OC(=O)c3ccccc3Br)cc2N)cc1,-9.27% (inactive)
22,CCc1c(C)sc(NC(=O)c2ccc(Br)o2)c1C(=O)OC,5.35% (inactive)
23,Cc1cc(C)nc(S/C=C/C(=O)c2ccccc2F)n1,1.06% (inactive)
24,c1ccc(N2CC3CCc4ccccc4C3=N2)cc1 (stereo unspecified),11.6% (inactive)
25,O=c1[nH][nH]c(-c2ccccc2O)c1C(C[N+](=O)[O-])c1ccccc1 (stereo unspecified),0.55% (inactive)
26,CCCc1nc(SCC(=O)Nc2cc(C)on2)c2ccccc2n1,4.07% (inactive)
27,C[C@H](NC(=O)[C@@H]1CSC2c3ccccc3C(=O)N21)C(=O)NCCc1ccccc1 (stereo partly specified),-5.08% (inactive)

# System: S. cerevisiae alpha-synuclein toxicity rescue, OD600 growth, 24 h
# Assay: as above
# Settings: not given
row,SMILES,AC40
1,O=C1C=C(c2ccccc2)CC(/C=C/c2ccccc2)C1 (stereo unspecified),> 12 µM (inactive)
2,CC1(C)CC(=O)C=C(NC2=CC3OC(c4ccccc4)OCC3OC2=O)C1 (stereo unspecified),> 26 µM (inactive)
3,O=c1c2sccc2nc(SCc2ccc([N+](=O)[O-])cc2)n1Cc1ccccn1,> 26 µM (inactive)
4,CCOC(=O)c1nnsc1Nc1ccc(C)c(C)c1,> 26 µM (inactive)
5,Cc1ccccc1CSc1nsc(N)n1,14.5 µM
6,CN1CCN(Cc2c(O)ccc3cc(Br)ccc23)CC1,> 26 µM (inactive)
7,COc1cccc(NC(=S)NC(=O)c2c(Cl)c(C)nn2C)c1,> 26 µM (inactive)
8,Cc1ccc2oc(C(=O)N3CCC(O)(c4cccc(C(F)(F)F)c4)CC3)c(C)c2c1,> 26 µM (inactive)
9,O=[N+]([O-])c1cccc(-c2ncc3ccccn23)c1,> 26 µM (inactive)
10,Cc1cc(-c2nc3ncccc3o2)ccc1NC(=S)NC(=O)C(C)C,> 26 µM (inactive)
11,O=c1[nH]c2ccccc2c2cn(-c3ccccc3)nc12,23.4 µM
12,CSc1sc(C(=O)Nc2ccc(F)cc2F)c2c1C=CCC2,> 26 µM (inactive)
13,COc1cccc(CNc2ccc(Br)cn2)c1O,> 26 µM (inactive)
14,Clc1ccc(SCc2csc(N3CCOCC3)n2)cc1,> 26 µM (inactive)
15,CC(C)c1ccc(C2NC(=O)c3ccccc3O2)cc1 (stereo unspecified),12.1 µM
16,O=C(CSc1nnc(-c2c[nH]c3ccccc23)o1)c1ccccc1,> 26 µM (inactive)
17,Fc1cc(NCc2ccccc2)nc(NCc2ccccc2)n1,> 26 µM (inactive)
